# Assay results published in patent US9616062B2, “Cyclin dependent kinase inhibitors and methods of use” (priority 2009, dated 2017).
# Key:
# [1] = test system: irradiated (6.5 Gy) wild type mice (FVB/n); experiment: Myelosuppression assay: complete blood counts after sub-lethal irradiation, with or without erythropoietin; format: in vivo, mouse; settings: PD0332991 150 mg/kg oral gavage just prior to irradiation, EPO at 72, 96, 120 h post-irradiation, day 17
# Protocol: FIG. 1: CDK4/6 inhibition potentiates the efficacy of erythropoietin-mediated recovery of the erythroid cell lineage following DNA damage. Cohorts (8 mice per cohort) of irradiated (6.5 Gy) wild type mice (FVB/n) are given placebo, erythropoietin (EPO), a CDK4/6 inhibitor (PD0332991), or a combination of CDK4/6 inhibitor and EPO (PD0332991+EPO). Serial blood draws are performed at day 17 after treatment and complete blood counts assessed to determine the number of red blood cells, various leukocytes subpopulations, and platelets. The effect of treatment on platelets is shown in the panel on the upper left, red blood cells (RBC) in the panel on the upper right, hemoglobin (Hb) in the panel on the lower left, and hematocrit (HCT) in the panel on the lower right. Error bars represent +/−SEM. […]
# Baseline complete blood cell (CBC) anaylsis was performed on a subset of mice prior to drug administration. […] Blood was analyzed using a Hemavet CBC-Diff Veterinary Hematology System (Drew Scientific Inc., Dallas, Tex., United States of America). […]
# Cohorts of FVB wild type mice were given placebo or CDK4/6 inhibitor (PD0332991, 150 mg/kg oral gavage) just prior to receiving a sub-lethal dose of irradiation (6.5 Gcy). […] Complete blood counts (CBCs) were assessed to determine the number of red blood cells, various leukocytes subpopulations and platelets.
# [2] = test system: human peripheral blood T cells (memory and naive); experiment: Human peripheral blood T cell proliferation after PMA and ionomycin stimulation (BrdU, Ki-67 FACS); format: cell-based
# Protocol: FIG. 13: CDK4/6 inhibitors suppress T cell proliferation upon stimulation through TCR pathway in both memory and naïve compartments. Human peripheral blood T cells were purified using Automacs by CD3 positive selection before being treated with CDK4/6 inhibitors and stimulated with PMA and Inomycin for 48 hrs. The proliferation of memory […] T cells after stimulation by PMA and Inomycin was measured by FACS staining of BrdU+ or Ki-67+ cells. The percentages of inhibition are shown, which indicates more inhibition of memory compartment than naïve compartment.
# FIG. 14: CDK4/6 inhibitors suppress T cell proliferation upon stimulation through TCR pathway. […] Proliferation determined by BrdU or Ki67 incorporation. […]
# FIG. 15: Changes of CD4 T cell composition after CDK4/6 inhibition. […] The memory and terminal differentiated T cell fractions as assessed by BrdU incorporation are reduced after CDK4/6 inhibition. […]
# FIG. 16: Changes of CD4 T cell composition after CDK4/6 inhibition. […] The memory and terminal differentiated T cell fractions as assessed by Ki67 staining are reduced after CDK4/6 inhibition. […]
# Similar results were seen using human lymphocytes. […] In FIG. 15, the effects of CDK4/6 inhibition on specific Tcell fractions is assessed, with and without TCR, showing CDK4/6 inhibition has a greater effect on proliferation of memory cells relative to naïve cells. […]
smiles,measurement,setting,value
"CC(=O)c1c(C)c2cnc(Nc3ccc(N4CCNCC4)cn3)nc2n(C2CCCC2)c1=O [PD0332991, 6-acetyl-8-cyclopentyl-5-methyl-2-(5-piperazin-1-yl-pyridin-2-ylamino)-8H-pyrido-[2,3-d]-pyrimidin-7-one]",platelet counts (CBC),[1],improved platelet counts
same,"proliferation of memory vs naive T cells (BrdU incorporation, Ki67 expression)",[2],more significant decrease in homeostatic proliferation of memory T cells than naive T cells
